Data published in ChEMBL document CHEMBL6078641, “Modulation of aryl hydrocarbon receptor activity by halogenated indoles” (Bioorg Med Chem, 2024).

How the values were obtained:
[1] = test system: LS174T; assay: Cytotoxicity against human LS174T cells upto 200 uM incubated for 24 hrs by MTT assay; format: toxicity, cell-based
[2] = target: T1, Aryl hydrocarbon receptor (Mus musculus, UniProt P30561); assay: Displacement of [3H]-TCDD from AhR in mouse Hepa1c1c7 cell cytosolic lysate by competitive binding assay; format: subcellular, Cytosol; details: for Activity: mouse, cytosol, dose 0.1-100 µM
T1 sequence (P30561 whole entry): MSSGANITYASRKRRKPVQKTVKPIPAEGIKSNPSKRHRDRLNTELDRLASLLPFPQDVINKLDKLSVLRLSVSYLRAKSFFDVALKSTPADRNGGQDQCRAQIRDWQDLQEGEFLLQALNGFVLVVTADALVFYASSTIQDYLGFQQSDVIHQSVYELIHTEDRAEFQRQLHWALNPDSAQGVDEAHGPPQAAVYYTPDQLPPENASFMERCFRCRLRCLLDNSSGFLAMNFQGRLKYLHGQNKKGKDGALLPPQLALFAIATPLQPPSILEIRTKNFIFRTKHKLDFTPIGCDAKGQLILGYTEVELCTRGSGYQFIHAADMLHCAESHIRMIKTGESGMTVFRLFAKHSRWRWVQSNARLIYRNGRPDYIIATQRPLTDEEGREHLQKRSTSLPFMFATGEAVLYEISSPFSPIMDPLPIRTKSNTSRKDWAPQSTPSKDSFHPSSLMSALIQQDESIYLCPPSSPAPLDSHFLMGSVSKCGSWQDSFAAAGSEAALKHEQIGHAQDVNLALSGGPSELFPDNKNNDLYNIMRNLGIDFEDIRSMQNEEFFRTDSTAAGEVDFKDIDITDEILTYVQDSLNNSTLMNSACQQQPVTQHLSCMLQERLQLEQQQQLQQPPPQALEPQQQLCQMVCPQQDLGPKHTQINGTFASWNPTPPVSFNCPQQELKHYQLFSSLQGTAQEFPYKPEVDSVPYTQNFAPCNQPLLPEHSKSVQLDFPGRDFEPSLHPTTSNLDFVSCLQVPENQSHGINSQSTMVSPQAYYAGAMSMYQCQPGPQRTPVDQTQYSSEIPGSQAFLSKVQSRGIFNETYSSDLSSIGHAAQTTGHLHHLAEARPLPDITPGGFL

[3] = target: T1, Aryl hydrocarbon receptor; assay: Displacement of [3H]-TCDD from AhR in mouse Hepa1c1c7 cell cytosolic lysate at 50 uM by competitive binding assay relative to control; format: subcellular, Cytosol; details: Hepa-1c1c7, mouse, read-out: Activity
[4] = Induction of CYP1A1 mRNA expression in human LS180 cells incubated for 4 hrs by chromatin immunoprecipitation assay; format: functional
[5] = target: T2, Aryl hydrocarbon receptor (Homo sapiens, UniProt P35869); assay: Agonist activity at Luc-fused AhR (unknown origin) transcriptional activity expressed in human LS174T cells incubated for 24 hrs by luciferase reporter gene assay; format: cell-based
T2 sequence (P35869 whole entry): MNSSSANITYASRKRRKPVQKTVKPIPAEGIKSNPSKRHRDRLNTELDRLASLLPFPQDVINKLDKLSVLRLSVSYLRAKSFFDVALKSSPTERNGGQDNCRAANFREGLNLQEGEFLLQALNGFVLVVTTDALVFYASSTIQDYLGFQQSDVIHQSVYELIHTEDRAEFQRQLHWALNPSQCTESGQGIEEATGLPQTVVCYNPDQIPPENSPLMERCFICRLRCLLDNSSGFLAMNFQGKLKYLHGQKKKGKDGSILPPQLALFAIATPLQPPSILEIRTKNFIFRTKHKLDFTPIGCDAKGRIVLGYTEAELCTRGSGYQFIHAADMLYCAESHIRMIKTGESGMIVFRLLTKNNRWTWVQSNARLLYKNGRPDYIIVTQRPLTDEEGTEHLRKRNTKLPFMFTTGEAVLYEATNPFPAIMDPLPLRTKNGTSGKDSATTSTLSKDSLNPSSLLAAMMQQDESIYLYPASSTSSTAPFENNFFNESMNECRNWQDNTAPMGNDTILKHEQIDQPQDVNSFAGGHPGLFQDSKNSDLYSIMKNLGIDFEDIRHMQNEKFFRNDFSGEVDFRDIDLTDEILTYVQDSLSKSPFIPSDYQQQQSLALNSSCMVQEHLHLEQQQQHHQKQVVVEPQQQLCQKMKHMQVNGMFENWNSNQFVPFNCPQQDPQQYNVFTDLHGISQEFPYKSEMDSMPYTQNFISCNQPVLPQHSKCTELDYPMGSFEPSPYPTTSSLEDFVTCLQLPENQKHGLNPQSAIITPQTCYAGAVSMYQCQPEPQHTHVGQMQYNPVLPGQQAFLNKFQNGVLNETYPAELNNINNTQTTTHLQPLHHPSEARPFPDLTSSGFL

[6] = target: T2, Aryl hydrocarbon receptor; assay: Agonist activity at Luc-fused AhR (unknown origin) transcriptional activity expressed in human LS174T cells at 100 uM incubated for 4 hrs by luciferase reporter gene assay relative to control; format: cell-based; details: read-out: Activity
[7] = target: T2, Aryl hydrocarbon receptor; assay: Agonist activity at Luc-fused AhR (unknown origin) transcriptional activity expressed in human LS174T cells incubated for 4 hrs by luciferase reporter gene assay; format: cell-based
[8] = Induction of CYP1A1 mRNA expression in human LS180 cells at 25 uM incubated for 4 hrs by chromatin immunoprecipitation assay relative to control; format: functional
[9] = test system: LS174T; assay: Cytotoxicity against human LS174T cells assessed as decrease in cell viability at 200 uM incubated for 24 hrs by MTT assay relative to control; format: toxicity, cell-based
[10] = Induction of CYP1A1 mRNA expression in human LS180 cells assessed as fold increase at 100 uM incubated for 8 hrs by qRT-PCR analysis relative to control; format: functional
[11] = Induction of CYP1A1 mRNA expression in human LS180 cells assessed as fold increase at 100 uM incubated for 24 hrs by qRT-PCR analysis relative to control; format: functional

| SMILES | Activity [1] | EC80 [4] [µM] | activity at 100 µM [6] [%] | EC50 [7] [µM] | also measured |
| --- | --- | --- | --- | --- | --- |
| Fc1ccc2cc[nH]c2c1 | Non-toxic |  |  |  |  |
| Clc1cccc2cc[nH]c12 | Non-toxic |  |  |  |  |
| O=C1Cc2ccc(Cl)cc2N1 | Non-toxic | 0.3 |  |  | IC50 [2]: 7.4 µM; Ki [2]: 3.7 µM; Activity [2]: Dose-dependent-effect; inhibition at 50 µM [3]: 50% |
| Brc1cccc2[nH]ccc12 | Non-toxic |  |  |  |  |
| O=C1Cc2cccc(Cl)c2N1 | Non-toxic |  |  |  |  |
| O=C1Cc2cc(Cl)ccc2N1 | Non-toxic |  |  |  |  |
| O=C1Cc2ccc(Br)cc2N1 | Non-toxic | 33.1 | 68 | 2.5 | EC50 [5]: 18.6 µM; IC50 [2]: > 100 µM; Activity [2]: Dose-dependent-effect; inhibition at 50 µM [3]: 10%; Efficacy [8]: 12% |
| Brc1ccc2[nH]ccc2c1 | Non-toxic |  | 108 | 6.7 | EC50 [5]: 58.1 µM |
| Brc1ccc2cc[nH]c2c1 | Non-toxic | 4.1 |  |  | IC50 [2]: 43.4 µM; Ki [2]: 21.7 µM; Activity [2]: Dose-dependent-effect |
| Clc1ccc2cc[nH]c2c1 | Non-toxic |  | 92 | 4.3 | EC50 [5]: 80.6 µM |
| Clc1ccc2[nH]ccc2c1 | Non-toxic |  | 30 | 24.1 | Activity [9]: 50%; EC50 [5]: 77.2 µM |
| Fc1ccc2[nH]ccc2c1 | Non-toxic |  |  |  |  |
| Brc1cccc2cc[nH]c12 | Non-toxic | 5.5 |  |  | inhibition at 50 µM [3]: > 70% |
| Fc1cccc2[nH]ccc12 | Non-toxic | 5.1 |  |  | IC50 [2]: 18.2 µM; Ki [2]: 9.1 µM; Activity [2]: Dose-dependent-effect; inhibition at 50 µM [3]: > 70% |
| O=C1Cc2cc(Br)ccc2N1 | Non-toxic | 4.7 |  |  | IC50 [2]: > 100 µM; Activity [2]: Dose-dependent-effect; inhibition at 50 µM [3]: 20% |
| Fc1cccc2cc[nH]c12 | Non-toxic | 3.8 |  |  | IC50 [2]: 22.1 µM; Ki [2]: 11 µM; Activity [2]: Dose-dependent-effect; inhibition at 50 µM [3]: > 70% |
| O=C1Cc2cc(F)ccc2N1 | Non-toxic |  |  |  |  |
| Clc1cccc2[nH]ccc12 | Non-toxic |  | 15 | 7.9 | Activity [9]: 50% |
| Clc1cc2c(cc1Cl)Oc1cc(Cl)c(Cl)cc1O2 [2,3,7,8-TETRACHLORODIBENZO-P-DIOXIN] |  |  |  |  | fold change (FC) [10]: ~26; fold change (FC) [11]: ~92 |
| c1ccc2[nH]ccc2c1 [INDOLE] | Non-toxic |  | 94 | 11.1 | EC50 [5]: 43.1 µM |
| O=C1Cc2ccccc2N1 [OXINDOLE] | Non-toxic |  | 86 | 5.2 | EC50 [5]: 80.9 µM |
